Test results: patent US11371055B2, “Herbicide resistance genes” (CORTEVA AGRISCIENCE LLC, priority 2005, dated 2022)

What was measured:
[1] = test system: AAD-12 (v1) T1 tobacco plants; assay: Cross tolerance of T1 tobacco to phenoxy and pyridyloxy auxin herbicides; assay type: in vivo, Nicotiana tabacum
Description: Two to four T0 individuals surviving high rates of 2,4-D and fluroxypyr were saved from each event and allowed to self fertilize in the greenhouse to give rise to T1 seed. The T1 seed was stratified, and sown into selection trays much like that of Arabidopsis (Example 7.4), followed by selective removal of untransformed nulls in this segregating population with 560 g ai/ha glufosinate (PAT gene selection). Survivors were transferred to individual 3-inch pots in the greenhouse. These lines provided high levels of resistance to 2,4-D in the T0 generation. Improved consistency of response is anticipated in T1 plants not having come directly from tissue culture. These plants were compared against wildtype KY160 tobacco. All plants were sprayed with a track sprayer set at 187 L/ha. The plants were sprayed from a range of 140-2240 g ac/ha 2,4-D dimethylamine salt (DMA), 70-1120 g ace/ha triclopyr or 35-560 g ae/ha fluroxypyr. All applications were formulated in water. Each treatment was replicated 2-4 times. Plants were evaluated at 3 and 14 days after treatment. Plants were assigned injury rating with respect to stunting, chlorosis, and necrosis. The T1 generation is segregating, so some variable response is expected due to difference in zygosity.

[2] = test system: AAD-12 x AAD-1 F1 cross tobacco; assay: Auxinic herbicide cross tolerance of stacked tobacco, F1 cross; assay type: in vivo, Nicotiana tabacum; details: AAD-12 (v1) x AAD (v3) F1
Method: (§1) Homozygous AAD-12 (v1) (pDAS1580) and AAD-1 (v3) (pDAB721) plants (see PCT/US2005/014737 for the latter) were both reciprocally crossed and F1 seed was collected. The F1 seed from two reciprocal crosses of each gene were stratified and treated 4 reps of each cross were treated under the same spray regimen as used for the other testing with one of the following treatments: 70, 140, 280 g ac/ha fluroxypyr (selective for the AAD-12 (v1) gene); 280, 560, 1120 g ae/ha R-dichloroprop (selective for the AAD-1 (v3) gene); or 560, 1120, 2240 g ae/ha 2,4-D DMA (to confirm 2,4-D tolerance). Homozygous T2 plants of each gene were also planted for use as controls. Plants were graded at 3 and 14 DAT.

wildtype tobacco = assay: Auxinic herbicide cross tolerance of stacked tobacco, wildtype; assay type: in vivo, Nicotiana tabacum; details: KY160 wildtype control
Method: as §1

[3] = test system: wild-type tobacco line (KY160); assay: Field tolerance of tobacco, wild-type line; assay type: in vivo, Nicotiana tabacum; details: for injury: 14 DAT; for Average % Injury across locations at 14 DAT: Wild type
Method: Field level tolerance trials were conducted on three AAD-12 (v1) lines (events pDAS1580-[1]-018.001, pDAS1580-[1]-004.001 and pDAS1580-[1]-020.016) and one wild-type line (KY160) at field stations in Indiana and Mississippi. Tobacco transplants were grown in the greenhouse by planting T1 seed in 72 well transplant flats (Hummert International) containing Metro 360 media according to growing conditions indicated above. The null plants were selectively removed by Liberty selection as previously described. The transplant plants were transported to the field stations and planted at either 14 or 24 inches apart using industrial vegetable planters. Drip irrigation at the Mississippi site and overhead irrigation at the Indiana site were used to keep plants growing vigorously.
The experimental design was a split plot design with 4 replications. The main plot was herbicide treatment and the sub-plot was tobacco line. The herbicide treatments were 2,4-D (dimethylamine salt) at 280, 560, 1120, 2240 and 4480 g ac/ha, triclopyr at 840 g ae/ha, fluroxypyr at 280 g ac/ha and an untreated control. Plots were one row by 25-30 ft. Herbicide treatments were applied 3-4 weeks after transplanting using compressed air backpack sprayer delivering 187 L/ha carrier volume at 130-200 kpa pressure. Visual rating of injury, growth inhibition, and epinasty were taken at 7, 14 and 21 days after treatment.

[4] = test system: AAD-12 (v1) canola events 3759(20)018.001 and 3759(18)030.001; assay: Field tolerance of canola, AAD-12 events; assay type: in vivo, Brassica napus
Method: Field level tolerance trial was conducted on two AAD-12 (v1) events 3759(20)018.001 and 3759(18)030.001 and a wild-type canola (Nex710) in Fowler, Ind. The experimental design was a randomized complete block design with 3 replications. Herbicide treatments were 2,4-D (dimethylamine salt) at 280, 560, 1120, 2240 and 4480 g ac/ha, triclopyr at 840 g ae/ha, fluroxypyr at 280 g ae/ha and an untreated control. Within each herbicide treatment, single 20 ft row/event for event 3759(18)030.0011, 3759(18)018.001 and wild-type line (Nex710) were planted with a 4 row drill on 8 inch row spacing. Herbicide treatments were applied when canola reached the 4-6 leaf stage using compressed air backpack sprayer delivering 187 L/ha carrier volume at 130-200 kpa pressure. […]

[5] = test system: AAD-1 (v3) (pDAB721) T2 tobacco plants; assay: Auxinic herbicide cross tolerance of stacked tobacco, AAD-1 T2; assay type: in vivo, Nicotiana tabacum
Method: as §1

[6] = test system: AAD-12 (v1) (pDAS1580) T2 tobacco plants; assay: Auxinic herbicide cross tolerance of stacked tobacco, AAD-12 T2; assay type: in vivo, Nicotiana tabacum
Method: as §1

[7] = AAD-12 event 3759(18)030.001, 280 GM AE/HA
[8] = AAD-12 event 3759(20)018.001, 280 GM AE/HA

With `CNC.O=C(O)COc1ccc(Cl)cc1Cl` [2,4-D DMA] the “Average % Injury of Replicates 14 DAT” value ([1]; T1 1580(1)-004, 140 g ae/ha) was 0%, the “Average % Injury of Replicates 14 DAT” value ([1]; T1 1580(1)-004, 560 g ae/ha) was 0% and the “Average % Injury of Replicates 14 DAT” value ([1]; T1 1580(1)-004, 2240 g ae/ha) was 0%. The “Average % Injury of Replicates 14 DAT” value ([1]; T1 1580(1)-018, 140 g ae/ha) was 0%, the “Average % Injury of Replicates 14 DAT” value ([1]; T1 1580(1)-018, 560 g ae/ha) was 0% and the “Average % Injury of Replicates 14 DAT” value ([1]; T1 1580(1)-018, 2240 g ae/ha) was 0%.

In the case of `O=C(O)COc1ccc(Cl)cc1Cl` [2,4-D, 2,4-dichlorophenoxyacetic acid], the “Average % injury 14 DAT” value ([2]; 560 g ae/ha) is reported as 0%, the “Average % injury 14 DAT” value ([2]; 1120 g ae/ha) is reported as 0% and the “Average % injury 14 DAT” value ([2]; 2240 g ae/ha) is reported as 0%. The “Average % injury 14 DAT” value (wildtype tobacco; 560 g ae/ha) was 63%, the “Average % injury 14 DAT” value (wildtype tobacco; 1120 g ae/ha) was 80% and the “Average % injury 14 DAT” value (wildtype tobacco; 2240 g ae/ha) was 90%. The injury ([1]; 4× field rate (2240 g ae/ha) for 2,4-D or below) was “No injury”, the injury ([3]; 2,4-D at 560 g ae/ha (1× field application rate)) was 63% and the “Average % Injury across locations at 14 DAT” value ([3]; 280 GM AE/HA) was 48%. The “Average % Injury across locations at 14 DAT” value ([3]; 560 GM AE/HA) was 63%, the “Average % Injury across locations at 14 DAT” value ([3]; 1120 GM AE/HA) was 78% and the “Average % Injury across locations at 14 DAT” value ([3]; 2240 GM AE/HA) was 87%. For the same compound, the “Average % Injury across locations at 14 DAT” value ([3]; 4480 GM AE/HA) was 92%, the average injury ([4]; 2,4-D at the 1× rate, 14DAT) was 2% and the average injury ([4]; 2,4-D at the 2× rate, 14DAT) was 3%. For the same compound, the average injury ([4]; 2,4-D at the 4× rate, 14DAT) was 2%, the “% Visual Injury at 14 DAT” value [4, 7] was 0 b % and the “% Visual Injury at 14 DAT” value ([4]; AAD-12 event 3759(18)030.001, 560 GM AE/HA) was 0 b %. The “% Visual Injury at 14 DAT” value ([4]; AAD-12 event 3759(18)030.001, 1120 GM AE/HA) was 2 ab %, the “% Visual Injury at 14 DAT” value ([4]; AAD-12 event 3759(18)030.001, 2240 GM AE/HA) was 3 ab % and the “% Visual Injury at 14 DAT” value [4, 8] was 0 a %. For the same compound, the “% Visual Injury at 14 DAT” value ([4]; AAD-12 event 3759(20)018.001, 560 GM AE/HA) was 0 a %, the “% Visual Injury at 14 DAT” value ([4]; AAD-12 event 3759(20)018.001, 1120 GM AE/HA) was 2 a % and the “% Visual Injury at 14 DAT” value ([4]; AAD-12 event 3759(20)018.001, 2240 GM AE/HA) was 3 a %. The “Average % injury 14 DAT” value ([5]; 560 g ae/ha) was 0%, the “Average % injury 14 DAT” value ([5]; 1120 g ae/ha) was 4% and the “Average % injury 14 DAT” value ([5]; 2240 g ae/ha) was 9%. For the same compound, the “Average % injury 14 DAT” value ([6]; 560 g ae/ha) was 0%, the “Average % injury 14 DAT” value ([6]; 1120 g ae/ha) was 0% and the “Average % injury 14 DAT” value ([6]; 2240 g ae/ha) was 0%.

With `C[C@@H](Oc1ccc(Cl)cc1Cl)C(=O)O` [(R)-dichlorprop, R-2,4-dichlorophenoxypropionic acid] the “Average % injury 14 DAT” value ([2]; 280 g ae/ha) was 0%, the “Average % injury 14 DAT” value ([2]; 560 g ae/ha) was 0% and the “Average % injury 14 DAT” value ([2]; 1120 g ae/ha) was 0%. For the same compound, the “Average % injury 14 DAT” value (wildtype tobacco; 280 g ae/ha) was 25%, the “Average % injury 14 DAT” value (wildtype tobacco; 560 g ae/ha) was 60% and the “Average % injury 14 DAT” value (wildtype tobacco; 1120 g ae/ha) was 80%. For the same compound, the “Average % injury 14 DAT” value ([5]; 280 g ae/ha) was 0%, the “Average % injury 14 DAT” value ([5]; 560 g ae/ha) was 0% and the “Average % injury 14 DAT” value ([5]; 1120 g ae/ha) was 3%. For the same compound, the “Average % injury 14 DAT” value ([6]; 280 g ae/ha) was 15%, the “Average % injury 14 DAT” value ([6]; 560 g ae/ha) was 50% and the “Average % injury 14 DAT” value ([6]; 1120 g ae/ha) was 70%.

`Nc1c(Cl)c(F)nc(OCC(=O)O)c1Cl` [Fluroxypyr] was tested, and the “Average % injury 14 DAT” value ([2]; 70 g ae/ha) was 0%, the “Average % injury 14 DAT” value ([2]; 140 g ae/ha) was 0% and the “Average % injury 14 DAT” value (wildtype tobacco; 70 g ae/ha) was 40%. The “Average % injury 14 DAT” value (wildtype tobacco; 140 g ae/ha) was 65%, the injury ([1]; 35-560 g ae/ha fluroxypyr) was “greatest injury” and the “Average % Injury of Replicates 14 DAT” value ([1]; T1 1580(1)-004, 35 g ae/ha) was 0%. For the same compound, the “Average % Injury of Replicates 14 DAT” value ([1]; T1 1580(1)-004, 140 g ae/ha) was 0%, the “Average % Injury of Replicates 14 DAT” value ([1]; T1 1580(1)-004, 560 g ae/ha) was 3% and the “Average % Injury of Replicates 14 DAT” value ([1]; T1 1580(1)-018, 35 g ae/ha) was 8%. The “Average % Injury of Replicates 14 DAT” value ([1]; T1 1580(1)-018, 140 g ae/ha) was 10%, the “Average % Injury of Replicates 14 DAT” value ([1]; T1 1580(1)-018, 560 g ae/ha) was 18% and the injury ([3]; Fluroxypyr at 280 g ae/ha) was 99%. For the same compound, the “Average % Injury across locations at 14 DAT” value ([3]; 280 GM AE/HA) was 99%, the “% Visual Injury at 14 DAT” value [4, 7] was 8 a % and the “% Visual Injury at 14 DAT” value [4, 8] was 7 a %. The average injury ([4]; Fluroxypyr at 280 g ae/ha, 5DAT) was 8%, the “Average % injury 14 DAT” value ([5]; 70 g ae/ha) was 40% and the “Average % injury 14 DAT” value ([5]; 140 g ae/ha) was 60%. For the same compound, the “Average % injury 14 DAT” value ([6]; 70 g ae/ha) was 0% and the “Average % injury 14 DAT” value ([6]; 140 g ae/ha) was 0%.

`O=C(O)COc1nc(Cl)c(Cl)cc1Cl` [triclopyr] was tested, and the injury ([1]; 70-1120 g ae/ha triclopyr, in one event line) was “Some injury”, the “Average % Injury of Replicates 14 DAT” value ([1]; T1 1580(1)-004, 70 g ae/ha) was 0% and the “Average % Injury of Replicates 14 DAT” value ([1]; T1 1580(1)-004, 280 g ae/ha) was 0%. For the same compound, the “Average % Injury of Replicates 14 DAT” value ([1]; T1 1580(1)-004, 1120 g ae/ha) was 0%, the “Average % Injury of Replicates 14 DAT” value ([1]; T1 1580(1)-018, 70 g ae/ha) was 5% and the “Average % Injury of Replicates 14 DAT” value ([1]; T1 1580(1)-018, 280 g ae/ha) was 5%. The “Average % Injury of Replicates 14 DAT” value ([1]; T1 1580(1)-018, 1120 g ae/ha) was 8%, the injury ([3]; 2× rate of triclopyr (840 g ae/ha)) was 53% and the “Average % Injury across locations at 14 DAT” value ([3]; 840 GM AE/HA) was 53%. For the same compound, the “average injury across the two events” value ([4]; 2× rate of triclopyr (840 g ae/ha), 14 DAT) was 6%, the “% Visual Injury at 14 DAT” value ([4]; AAD-12 event 3759(18)030.001, 840 GM AE/HA) was 6 ab % and the “% Visual Injury at 14 DAT” value ([4]; AAD-12 event 3759(20)018.001, 840 GM AE/HA) was 6 a %.
